System: .221-C1402 / .221-C1403 cells pulsed with peptide
Experiment: ICS assay, peptide-specific bulk T cells against peptide-pulsed .221 cells
Assay type: cell-based, human
Details: IFN-γ ICS, 1 μM peptide (autologous allele) or 0.01 to 10 nM (cross-recognition), triplicate assays
Method: To confirm the HLA-C*14-restriction of the T cell responses to the 6 NL4-3-derived peptides, we expanded T cells specific for these peptides by stimulating peripheral blood mononuclear cells (PBMCs) from responders with each peptide (HLA-C*14:02^+ responders for Gag AM9, Pol KM9, and Nef AL9 and HLA-C*14:03^+ responders for Gag LY9, Nef IF8, and Nef YT9). The cultured T cells were then tested for their ability to recognize the peptides presented on 721.221 cells expressing HLA-C*14:02 (.221-C1402 cells) or HLA-C*14:03 (.221-C1403 cells) and 721.221 cells by intracellular cytokine staining (ICS) assay. Both cell lines expressed similarly high levels of HLA-C*14, although the surface expression level of HLA-C*14 on the HLA-C*14:03-transfected line was higher than that on the HLA-C*14:02 line (the ratio of relative expression of HLA-C*14:03 to that of HLA-C*14:02 was approximately 1.3:1) (Fig. 4A). […] We further analyzed cross-recognition of .221-C1402 and .221-C1403 cells prepulsed with peptides at a range of different concentrations by T cells from HLA-C*14:02^+ and HLA-C*14:03^+ individuals.
FIG 4 HLA-C*14:02- and HLA-C*14:03-restricted T cell responses to 6 putative epitope peptides. (A) Histogram plots showing surface expression of HLA-C*14:02 or HLA-C*14:03 on .221-C14:02 or .221-C14:03 cells. The relative expression level of HLA-C*14:02 versus HLA-C*14:03 [(MFI of .221-C1402 stained with DT9 − MFI of .221-C1402 stained with the second antibody)/(MFI of .221-C1403 stained with DT9 − MFI of .221-C1403 stained with the second antibody)] is 1.3. (B and C) Gag LY9-, Gag AM9-, Pol KM9-, Nef YT9-, Nef IF8-, and Nef AL9-specific bulk T cell populations were expanded by stimulating responders’ PBMCs with each peptide. The ability of these peptide-specific bulk T cells to recognize peptide-pulsed .221 cells expressing HLA-C*14 molecules was then analyzed by ICS assay. (B) T cell recognition of .221 cells expressing the patient’s autologous HLA-C*14 allele and non-HLA-C*14-expressing cells pulsed with 1 μM peptide. (C) T cell recognition of HLA-C*14:02 or HLA-C*14:03-expressing cells pulsed with the indicated peptides at concentrations from 0.01 to 10 nM was analyzed by an ICS assay. The results are means and SDs from triplicate assays.
PBMCs from HIV-1-infected individuals were stimulated with 1 μM concentrations of the corresponding peptides and then cultured for 2 weeks in RPMI 1640 medium (Thermo Fisher) containing 10% FCS, 20 ng/mL of human recombinant interleukin 2 (rIL-2) (ProSpec), 1× minimal essential medium (MEM) nonessential amino acid solution (Gibco), and 1 mM sodium pyruvate solution (Gibco). Following T cell expansion, .221-C1402 cells or .221-C1403 cells prepulsed with each HIV-1 peptide or .221-C1402 cells or .221-C1403 cells infected with HIV-1 NL4-3 were added to a 96-well plate together with bulk-cultured T cells, and the cells were incubated for 4 h at 37°C with brefeldin A ([…]). The cells were then stained with Pacific blue (PB)-labeled anti-CD3 MAb (BioLegend), FITC-labeled anti-CD19 MAb (BioLegend), allophycocyanin (APC)-labeled anti-CD8 MAb (BioLegend), and a LIVE/DEAD fixable near-infrared (IR) dead-cell staining kit (Invitrogen) and subsequently fixed with 4% paraformaldehyde and incubated in permeabilization buffer (0.1% saponin–5% FBS–PBS). Thereafter, the cells were stained with phycoerythrin (PE)-labeled anti-IFN-γ MAb (BioLegend). Staining data were acquired on a FACSCanto II instrument (BD Biosciences) and analyzed using FlowJo 10.7.1 software.

Question: Which “recognition of peptide-pulsed .221 cells by peptide-specific bulk T cells” value (shortened to “recognition of peptide-pulsed .221 cells”) does the source give for AFHHVAREL [Nef AL9] here?
Answer: recognized the epitope peptide-pulsed .221 cells expressing their autologous HLA-C*14 allele

Question: YFPDWQNYT [Nef YT9] was tested. Which “recognition of peptide-pulsed .221 cells” value did it give?
Answer: recognized the epitope peptide-pulsed .221 cells expressing their autologous HLA-C*14 allele

Question: With IYHTQGYF [Nef IF8] as the sequence, how does the “recognition of peptide-pulsed .221 cells” value read?
Answer: recognized the epitope peptide-pulsed .221 cells expressing their autologous HLA-C*14 allele

Question: How did the “recognition of peptide-pulsed .221 cells” value turn out when KYHSNWRAM [Pol KM9] was run?
Answer: recognized the epitope peptide-pulsed .221 cells expressing their autologous HLA-C*14 allele

Question: For LYNTIAVLY [Gag LY9], which “recognition of peptide-pulsed .221 cells” value is on record?
Answer: recognized the epitope peptide-pulsed .221 cells expressing their autologous HLA-C*14 allele

Question: For AFSPEVIPM [Gag AM9], which “recognition of peptide-pulsed .221 cells” value is on record?
Answer: recognized the epitope peptide-pulsed .221 cells expressing their autologous HLA-C*14 allele
